Consider three compounds from US4932871A, “Rapid method for preparing chromogenic alpha-amylase substrate compounds at high preparative yields” (Miles Inc., priority 1987, dated 1990).

Each structure is given as a SMILES string. Several values for one entry are separate records, joined by “and”; a condition that tells them apart may be missing. Equal values may be shown once.

The subject of one series is β-D-glucosidase. Put plainly: Hydrolysis of the glucoside substrate by β-D-glucosidase (Kcat, Km). It is filed as biochemical. To be noted: 50 mM phosphate buffered solution (pH 7.4) containing 5.0 mM MgCl2.
A short description of series [1]: Solubility in phosphate buffered solution. The class given is physicochemical. The conditions noted are these: phosphate buffered solution (pH 7.4). The source says:
The resulting glucoside has an absorbance (λmax) of 438 nm (yellow), an extinction coefficient of 27,400, and is soluble in a phosphate buffered solution (pH 7.4). […] Accordingly, such compound provides a very advantageous substrate for a secondary enzyme, such as β-D-glucosidase, in an assay system for α-amylase.

For series [2], the system named is α-amylase. The series can be described thus: Liquid analytical test system for the detection of α-amylase (DMA-G7, α-glucosidase, β-glucosidase). The class given is biochemical. The conditions noted are these: average of three consecutive readings between 3 and 6 minutes. On the procedure:
A liquid α-amylase detection reagent was prepared by combining 1.8 mM DMA-G7 prepared according to Example 2, 38 units of α-glucosidase and 20 units of β-glucosidase in 1.0 mL of buffered solution comprising 50 mM PIPES, 50 mM NaCl, and 5.0 mM calcium chloride (pH 7.0). Amylase control serum (0.025 mL) containing 37 IU/L, 175 IU/L, and 313 IU/L, respectively, of α-amylase were added to the detection reagent, independently, and incubated at 37° C. The enzymatic action of α-amylase on the substrate compound in each of the mixtures liberated the shorter chain chromogenic maltooligosaccharide compounds thereof (e.g., DMA-G2 to DMA-G4) which, in turn, were enzymatically acted upon by the α-glucosidase and β-glucosidaseto liberate the optically active form or anion of the 7-hydroxy-9,9-dimethyl- 9H-acridin-2-one chromogen. The rate of color change produced by the liberated chromogen in each of the mixtures was measured at 634 nm on a Cary 219 spectrophotometer (Varian Associates, Inc., Sonnyvale, Calif., USA) from between 1 and 9 minutes after each of the serum samples were added to the detection reagent (Table 2/FIG. 4).

Series [3] has as its system α-amylase. The series can be described thus: Analytical test device for the detection of α-amylase (filter paper impregnated with DMA-G7 reagent). It is filed as biochemical. The conditions noted are these: between 180 and 200 seconds, three aliquots. As to the method:
A sheet of Whatman 54 filter paper (Whatman, Inc., Clifton, N.J., USA) was immersed into a solution comprising the liquid α-amylase detection reagent prepared according to Example 3, 0.1% Triton X-100 (Sigma Chemical Co., St. Louis, Mo., USA) and 0.5% carboxycellulose, and dried.
Analytical test devices were prepared by mounting 0.5 cm wide ×1.0 cm long segment of the aforementioned impregnated filter paper onto and along the edge of one surface of 0.5 cm×8.125 cm polystyrene supports (Tricite®, Dow Chemical Co., Midland, Mich., USA) previously laminated with a 2 mm strip of Double Stick® double-faced adhesive tape (3M Company, St. Paul, Minn., USA).
Three 30 μL aliquots of undiluted serum containing 39 IU/L, 78 IU/L, 117 IU/L, 157 IU/L, 235 IU/L, and 313 IU/L, respectively, of α-amylase were applied, independently, to a test device and the rate of color change produced by the liberated chromogen on each device was measured at 630 nm on a Seralyzer® reflectance photometer (Miles Inc., Elkhart, Ind., USA) from between 0 seconds and 240 seconds after the serum sample was added to each test device.

On to `CC1(C)C2=CC(=O)C=CC2=Nc2ccc(O[C@@H]3O[C@H](CO)[C@@H](O)[C@H](O)[C@H]3O)cc21` [DMA-G1, 7-β-D-glucopyranosyloxy-9,9-dimethyl-9H-acridin-2-one], for which the “rate at which the enzyme cleaves the substrate (Kcat)” value with β-D-glucosidase was 1.32×10^4 mol min.^-1 /mol. active site. The Michaelis constant (Km) with β-D-glucosidase (read-out: binding constant (Km)) amounted to 170 µM. For the same compound, in series [1], the solubility entry was “soluble”.

`CC1(C)C2=CC(=O)C=CC2=Nc2ccc(O[C@@H]3O[C@H](CO)[C@@H](O[C@H]4O[C@H](CO)[C@@H](O[C@H]5O[C@H](CO)[C@@H](O[C@H]6O[C@H](CO)[C@@H](O[C@H]7O[C@H](CO)[C@@H](O[C@H]8O[C@H](CO)[C@@H](O[C@H]9O[C@H](CO)[C@@H](O)[C@H](O)[C@H]9O)[C@H](O)[C@H]8O)[C@H](O)[C@H]7O)[C@H](O)[C@H]6O)[C@H](O)[C@H]5O)[C@H](O)[C@H]4O)[C@H](O)[C@H]3O)cc21` [DMA-G7, 7-β-maltoheptaosyloxy-9,9-dimethyl-acridin-2-one]: the “α-amylase reactivity, rate of color change at 634 nm” value in the series with α-amylase [2] (37 IU/L α-amylase) was determined as 0.011 Absorbance/Minute; in the series on α-amylase [2] (175 IU/L α-amylase), 0.062 Absorbance/Minute; in the series on α-amylase [2] (313 IU/L α-amylase), 0.109 Absorbance/Minute. For the same compound, the “Reactivity (linear regression of L(R), reflectance at 630 nm)” value is 0.384 × 10^-2 and 0.373 × 10^-2 and 0.359 × 10^-2 in the series with α-amylase [3] (39 IU/L α-amylase in undiluted serum); 0.957 × 10^-2 and 0.941 × 10^-2 and 0.954 × 10^-2 with α-amylase [3] (78 IU/L α-amylase in undiluted serum); 1.450 × 10^-2 and 1.510 × 10^-2 and 1.430 × 10^-2 in the series with α-amylase [3] (117 IU/L α-amylase in undiluted serum); 1.781 × 10^-2 and 1.999 × 10^-2 and 1.886 × 10^-2 with α-amylase [3] (157 IU/L α-amylase in undiluted serum); 2.560 × 10^-2 and 2.596 × 10^-2 and 2.610 × 10^-2 in the series on α-amylase [3] (235 IU/L α-amylase in undiluted serum); 2.961 × 10^-2 and 2.989 × 10^-2 and 2.916 × 10^-2 with α-amylase [3] (313 IU/L α-amylase in undiluted serum).

As for `CC1(C)C2=CC(=O)C=CC2=Nc2ccc(O)cc21` [liberated chromogen anion, 7-hydroxy-9,9-dimethyl-9H-acridin-2-one], in series [1], the solubility result is “soluble”.

Usually Km stands for the substrate concentration at which the rate is half of its maximum.
